Experimental findings from patent publication US20250057958A1, “CYTOTOXICITY TARGETING CHIMERAS FOR CCR2-EXPRESSING CELLS” (GLAXOSMITHKLINE INTELLECTUAL PROPERTY DEVELOPMENT LIMITED, priority 2022, published 2025) are described below.

What is called IC50 is the concentration needed to halve the response being measured.

In test [1] the target is T1, CHOK1 cells engineered to overexpress human CCR2 (Homo sapiens, UniProt P41597).
T1 construct: expressed in transfected cells; host or cells: CHOK1 cells
Nature of the test: Antibody dependent cellular cytotoxicity (ADCC) reporter assay. The class given is cell-based. Particulars: with anti-cotinine antibody (SEQ ID NO: 11/12, human IgG1 Fc S239D/I332E); Jurkat FcγRIIIa NFAT-luciferase reporter cells; 12-18 hours; average if more than one run; read-out: ADCC Reporter Assay pEC50 (converted). The method, then: An antibody dependent cellular cytoxocity reporter assay was conducted using the following four assay components: (i) ARM compound of Formula (I) targeting CCR2 (concentrations ranging from 1 pM to 10 μM) (ii) anti-cotinine antibody having a heavy chain sequence of SEQ ID NO: 11 and a light chain sequence of SEQ ID NO: 12 (rabbit variable region with human IgG1 Fc domain containing a DE mutation (S239D/I332E)) (concentrations ranging from 0.01 μg/mL to 200 μg/mL); (iii) target cells: CHOK1 cells engineered to overexpress either human CCR2 (typically 1000-20,000 cells perwell) and (iv) reporter cells: Jurkat cells engineered to express FcγRIIIa with the reporter gene luciferase under the control of the NFAT promoter (typically 3000-75,000 cells per well). Reagents were combined in a final volume of 20 μL in a 384—well tissue culture treated plate. All four assay components were incubated together for about 12-18 hours. Thereafter, BioGlo Detection reagent (Promega) was added to the wells to lyse the cells and provide a substrate for the luciferase reporter protein. Luminescence signal was measured on a microplate reader and signal:background was calculated by dividing the signal of a test well by the signal obtained when no ARM compound of Formula (I) was added. EC50 calculations were done using Graphpad Prism Software, specifically a nonlinear regression curve fit (Y=Bottom+(Top−Bottom)/(1+10 ^((Log EC50−X)*HillSlope))).
ARMs compounds of Formula (I) of the invention were tested for ADCC activity in the above assay in or more experimental runs and the results are shown in Table 3 below. Potency of the compounds of Formula (I) of the invention is reported as a pEC50 value. The pEC50 value is the negative log of the EC50 value, wherein the EC50 value is the half maximal effective concentration measured in molar (M). For compounds tested in more than one experimental run, the pEC50 value is reported as an average.
On the technique in general: Reporter assays use an easily measured gene product as a stand-in for the process of interest.

For test [2], the target named is human alpha1 nicotinic acetylcholine (nACh) receptor (Homo sapiens, UniProt P02708+Q07001). Nature of the test: Nicotinic acetylcholine receptor antagonism assay (IONFlux automated patch clamp). Particulars: for IC50: nAChR antagonism, stimulated with ACh, average if more than one run. Format: cell-based. The text has this:
Cells expressing human alpha1 nicotinic acetylcholine (nACh) receptor (nAChR) were washed and dissociated using Trypsin containing buffer. Cells were then washed and seeded at a density of 3-5 million cells/mL and allowed to grow for 3 days. […] The receptor was then stimulated via addition of acetylcholine (ACh) and activation of the receptor was monitored via the IONFlux automated patch clamp system. IonFlux Data Analyzer software was utilized to perform leak subtraction and measure (min) peak current amplitude.
Data processing: (1) Current values recorded for vehicle only applications in individual traps/patterns were subtracted from corresponding current amplitude values for control, test article and control+test article. (2) Control response was calculated as % of the average response of the 3rd out of total 3 ACh (10 mM) applications alone. In rare situations, if the 3rd ACh response was obscured due to technical artifacts, the 2nd and/or 1st ACh (10 mM) application was considered as control. The peak current amplitude generated in the presence of each test article concentration was then used to calculate the % inhibition as compared to control response (10 mM ACh alone). These estimates were further corrected for vehicle response and run down corrected by normalizing with time matched control responses (10 mM ACh alone). The corrected percentages were then fit with a non-linear function in GraphPad Prism 6 (or later versions) to determine the IC50.
Exclusion criteria: (i) any n's with poor recording quality, (ii) control current amplitude <500 pA or (iii) significant outliers, as determined by the Grubbs' test.
ARMs compounds of Formula (I) of the invention were tested for antagonism of the nAChR in the above assay in […] experimental runs and the results are shown in Table 5 below. Antagonistic activity of the compounds of Formula (I) of the invention is reported as an IC50 value (half maximal inhibitory concentration) and the maximum percentage antagonism observed at the highest concentration of compound of Formula (I) tested, as indicated in Table 5. For compounds tested in more than one experimental run, the IC50 value is reported as an average.
(The patch-clamp technique gives a direct electrical read-out from membranes.)

[3] abbreviates: maximum percentage antagonism at highest concentration tested, read-out: Maximum Response (%).

human alpha1 nicotinic acetylcholine (nACh) receptor, sequence (P02708 21-457): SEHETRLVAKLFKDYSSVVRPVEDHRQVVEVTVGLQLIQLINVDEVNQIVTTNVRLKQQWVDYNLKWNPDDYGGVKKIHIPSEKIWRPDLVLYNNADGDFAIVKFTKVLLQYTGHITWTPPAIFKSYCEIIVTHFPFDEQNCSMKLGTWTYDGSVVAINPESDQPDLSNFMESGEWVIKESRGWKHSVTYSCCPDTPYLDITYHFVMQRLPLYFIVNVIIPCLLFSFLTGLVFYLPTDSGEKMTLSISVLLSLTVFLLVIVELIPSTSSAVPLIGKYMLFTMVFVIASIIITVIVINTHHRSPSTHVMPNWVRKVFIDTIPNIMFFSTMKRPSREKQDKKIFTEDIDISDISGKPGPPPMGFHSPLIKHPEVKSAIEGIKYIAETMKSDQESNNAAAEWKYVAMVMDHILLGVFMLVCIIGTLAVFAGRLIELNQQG
human alpha1 nicotinic acetylcholine (nACh) receptor, sequence (P11230 24-501 partner): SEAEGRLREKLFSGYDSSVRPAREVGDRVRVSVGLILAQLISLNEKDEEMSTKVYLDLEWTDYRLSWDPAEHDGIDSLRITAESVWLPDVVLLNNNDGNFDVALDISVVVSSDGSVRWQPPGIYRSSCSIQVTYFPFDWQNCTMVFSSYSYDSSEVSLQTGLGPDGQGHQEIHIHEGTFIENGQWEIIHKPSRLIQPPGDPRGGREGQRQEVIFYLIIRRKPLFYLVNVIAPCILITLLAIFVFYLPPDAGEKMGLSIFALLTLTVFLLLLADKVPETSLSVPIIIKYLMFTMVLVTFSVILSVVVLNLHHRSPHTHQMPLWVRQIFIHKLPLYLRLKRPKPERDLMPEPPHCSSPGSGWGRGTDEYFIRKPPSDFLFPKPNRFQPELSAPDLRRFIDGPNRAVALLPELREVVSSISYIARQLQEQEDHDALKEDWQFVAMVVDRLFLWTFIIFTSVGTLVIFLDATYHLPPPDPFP
human alpha1 nicotinic acetylcholine (nACh) receptor, sequence (Q07001 22-517): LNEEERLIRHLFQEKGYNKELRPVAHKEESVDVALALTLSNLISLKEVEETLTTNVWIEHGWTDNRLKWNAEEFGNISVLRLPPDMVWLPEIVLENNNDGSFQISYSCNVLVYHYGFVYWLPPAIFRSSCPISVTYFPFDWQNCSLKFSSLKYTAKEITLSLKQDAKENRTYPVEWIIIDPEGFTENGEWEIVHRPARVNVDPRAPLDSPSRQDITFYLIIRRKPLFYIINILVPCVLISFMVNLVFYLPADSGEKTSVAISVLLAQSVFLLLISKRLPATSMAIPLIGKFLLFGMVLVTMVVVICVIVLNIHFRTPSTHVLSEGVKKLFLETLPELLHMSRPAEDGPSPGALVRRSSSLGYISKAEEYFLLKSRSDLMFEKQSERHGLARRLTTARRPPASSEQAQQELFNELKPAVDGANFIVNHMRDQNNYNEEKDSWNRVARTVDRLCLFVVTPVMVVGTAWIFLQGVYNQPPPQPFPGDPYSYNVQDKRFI

Consider `CC(=O)N[C@@H]1C[C@H](NC(C)(C)C)CC[C@@H]1N1CC[C@H](Nc2nc(CCNC(=O)[C@H]3CC[C@H](NC(=O)CCCO[C@H]4CC[C@H](OCCNC(=O)[C@H]5CC(=O)N(C)[C@@H]5c5cccnc5)CC4)CC3)nc3ccc(C(F)(F)F)cc23)C1=O` [Example 4, (2S,3S)-N-(2-(((1R,4S)-4-(4-(((1S,4R)-4-((2-(4-(((S)-1-((1S,2R,4R)-2-Acetamido-4-(tert-butylamino)cyclohexyl)-2-oxopyrrolidin-3-yl)amino)-6-(trifluoromethyl)quinazolin-2-yl)ethyl)carbamoyl)cyclohexyl)amino)-4-oxobutoxy)cyclohexyl)oxy)ethyl)-1-methyl-5-oxo-2-(pyridin-3-yl)pyrrolidine-3-carboxamide], for which, in test [1], the EC50 is 0.251 nM. Moreover, in test [2] (setting [3]), the Emax at 100 µM amounted to 48%. The molecule further displayed an IC50 in test [2] above 100000 nM.

Turning to `CC(=O)N[C@@H]1C[C@H](NC(C)(C)C)CC[C@@H]1N1CC[C@H](Nc2nc(C3CCN(C(=O)[C@H]4CC[C@H](NC(=O)CCCO[C@H]5CC[C@H](OCCNC(=O)[C@H]6CC(=O)N(C)[C@@H]6c6cccnc6)CC5)CC4)CC3)nc3ccc(C(F)(F)F)cc23)C1=O` [Example 9, (2S,3S)-N-(2-(((1R,4S)-4-(4-(((1S,4R)-4-(4-(4-(((S)-1-((1S,2R,4R)-2-Acetamido-4-(tert-butylamino)cyclohexyl)-2-oxopyrrolidin-3-yl)amino)-6-(trifluoromethyl)quinazolin-2-yl)piperidine-1-carbonyl)cyclohexyl)amino)-4-oxobutoxy)cyclohexyl)oxy)ethyl)-1-methyl-5-oxo-2-(pyridin-3-yl)pyrrolidine-3-carboxamide], in test [1], the EC50 was 0.631 nM. Besides, the Emax at 11.1 µM in test [2] (maximum percentage antagonism at highest concentration tested, 11.1 μM, read-out: Maximum Response (%)) is 2%. In addition, the half-inhibitory concentration (IC50) in test [2] is above 11100 nM.

In the case of `CC(=O)N[C@@H]1C[C@H](NC(C)(C)C)CC[C@@H]1N1CC[C@H](Nc2nc(NCC3CCN(C(=O)[C@H]4CC[C@H](NC(=O)CCCO[C@H]5CC[C@H](OCCNC(=O)[C@H]6CC(=O)N(C)[C@@H]6c6cccnc6)CC5)CC4)CC3)nc3ccc(C(F)(F)F)cc23)C1=O` [Example 2, (2S,3S)-N-(2-(((1R,4S)-4-(4-(((1S,4R)-4-(4-(((4-(((S)-1-((1S,2R,4R)-2-Acetamido-4-(tert-butylamino)cyclohexyl)-2-oxopyrrolidin-3-yl)amino)-6-(trifluoromethyl)quinazolin-2-yl)amino)methyl)piperidine-1-carbonyl)cyclohexyl)amino)-4-oxobutoxy)cyclohexyl)oxy)ethyl)-1-methyl-5-oxo-2-(pyridin-3-yl)pyrrolidine-3-carboxamide], in test [1], the EC50 is 0.316 nM. In test [2] (maximum percentage antagonism at highest concentration tested, 11.11 μM, read-out: Maximum Response (%)), the Emax at 11.11 µM came to 9%. In addition, the IC50 in test [2] was above 11100 nM.

In the case of `CC(=O)N[C@@H]1C[C@H](NC(C)(C)C)CC[C@@H]1N1CC[C@H](Nc2nc(OCC3CCN(C(=O)[C@H]4CC[C@H](NC(=O)CCCO[C@H]5CC[C@H](OCCNC(=O)[C@H]6CC(=O)N(C)[C@@H]6c6cccnc6)CC5)CC4)CC3)nc3ccc(C(F)(F)F)cc23)C1=O` [Example 8, (2S,3S)-N-(2-(((1R,4S)-4-(4-(((1S,4R)-4-(4-(((4-(((S)-1-((1S,2R,4R)-2-Acetamido-4-(tert-butylamino)cyclohexyl)-2-oxopyrrolidin-3-yl)amino)-6-(trifluoromethyl)quinazolin-2-yl)oxy)methyl)piperidine-1-carbonyl)cyclohexyl)amino)-4-oxobutoxy)cyclohexyl)oxy)ethyl)-1-methyl-5-oxo-2-(pyridin-3-yl)pyrrolidine-3-carboxamide], the EC50 in test [1] is 50.1 nM.

For the molecule `CC(=O)N[C@@H]1C[C@H](NC(C)(C)C)CC[C@@H]1N1CC[C@H](Nc2nc(NC3CCN(C(=O)[C@H]4CC[C@H](NC(=O)CCCO[C@H]5CC[C@H](OCCNC(=O)[C@H]6CC(=O)N(C)[C@@H]6c6cccnc6)CC5)CC4)CC3)nc3ccc(C(F)(F)F)cc23)C1=O` [Example 13, (2S,3S)-N-(2-(((1R,4S)-4-(4-(((1S,4R)-4-(4-((4-(((S)-1-((1S,2R,4R)-2Acetamido-4-(tert-butylamino)cyclohexyl)-2-oxopyrrolidin-3-yl)amino)-6-(trifluoromethyl)quinazolin-2-yl)amino)piperidine-1-carbonyl)cyclohexyl)amino)-4-oxobutoxy)cyclohexyl)oxy)ethyl)-1-methyl-5-oxo-2-(pyridin-3-yl)pyrrolidine-3-carboxamide], in test [1], the EC50 is 0.316 nM. Besides, in test [2] (maximum percentage antagonism at highest concentration tested, 33.33 μM, read-out: Maximum Response (%)), the Emax at 33.33 µM was 68%. Besides, the 50% inhibitory concentration (IC50) in test [2] is 10100 nM.

`CC(=O)N[C@@H]1C[C@H](NC(C)(C)C)CC[C@@H]1N1CC[C@H](Nc2nc(OC3CCN(C(=O)[C@H]4CC[C@H](NC(=O)CCCO[C@H]5CC[C@H](OCCNC(=O)[C@H]6CC(=O)N(C)[C@@H]6c6cccnc6)CC5)CC4)CC3)nc3ccc(C(F)(F)F)cc23)C1=O` [Example 7, (2S,3S)-N-(2-(((1R,4S)-4-(4-(((1S,4R)-4-(4-((4-(((S)-1-((1S,2R,4R)-2-acetamido-4-(tert-butylamino)cyclohexyl)-2-oxopyrrolidin-3-yl)amino)-6-(trifluoromethyl)quinazolin-2-yl)oxy)piperidine-1-carbonyl)cyclohexyl)amino)-4-oxobutoxy)cyclohexyl)oxy)ethyl)-1-methyl-5-oxo-2-(pyridin-3-yl)pyrrolidine-3-carboxamide]: the EC50 in test [1] was 79.4 nM.

`CC(=O)N[C@@H]1C[C@H](NC(C)(C)C)CC[C@@H]1N1CC[C@H](Nc2nc(COCCNC(=O)[C@H]3CC[C@H](NC(=O)CCCO[C@H]4CC[C@H](OCCNC(=O)[C@H]5CC(=O)N(C)[C@@H]5c5cccnc5)CC4)CC3)nc3ccc(C(F)(F)F)cc23)C1=O` [Example 14, (2S,3S)-N-(2-(((1R,4S)-4-(4-(((1S,4R)-4-((2-((4-(((S)-1-((1S,2R,4R)-2-acetamido-4-(tert-butylamino)cyclohexyl)-2-oxopyrrolidin-3-yl)amino)-6-(trifluoromethyl)quinazolin-2-yl)methoxy)ethyl)carbamoyl)cyclohexyl)amino)-4-oxobutoxy)cyclohexyl)oxy)ethyl)-1-methyl-5-oxo-2-(pyridin-3-yl)pyrrolidine-3-carboxamide]: the EC50 in test [1] is 0.501 nM. The Emax at 100 µM in test [2] (setting [3]) came to 54%. In test [2], this molecule returned an IC50 above 100000 nM.

For the molecule `CC(=O)N[C@@H]1C[C@H](NC(C)(C)C)CC[C@@H]1N1CC[C@H](Nc2nc(NCCNC(=O)[C@H]3CC[C@H](NC(=O)CCCO[C@H]4CC[C@H](OCCNC(=O)[C@H]5CC(=O)N(C)[C@@H]5c5cccnc5)CC4)CC3)nc3ccc(C(F)(F)F)cc23)C1=O` [Example 12, (2S,3S)-N-(2-(((1R,4S)-4-(4-(((1S,4R)-4-((2-((4-(((S)-1-((1S,2R,4R)-2-Acetamido-4-(tert-butylamino)cyclohexyl)-2-oxopyrrolidin-3-yl)amino)-6-(trifluoromethyl)quinazolin-2-yl)amino)ethyl)carbamoyl)cyclohexyl)amino)-4-oxobutoxy)cyclohexyl)oxy)ethyl)-1-methyl-5-oxo-2-(pyridin-3-yl)pyrrolidine-3-carboxamide], in test [1], the EC50 is 0.251 nM.
